The subject of data set [1] is C57BL6 mice. As to the kind of experiment: Lethal endotoxic shock mouse model (25 mg/kg E. coli W3110 LPS i.p.). In kind it is in vivo. Conditions: for survival rate: preliminary experiment; for survival: repeat experiment. The procedure: FIG. 4. ALSA 468 therapeutically rescues mice from lethal endotoxic shock. Lethal endotoxic shock was induced in 6-8 week old C57BL6 mice by injecting 25 mg/kg of E. coli LPS (strain W3110) i.p. […]
To determine if ASLA 468 is capable of therapeutically rescuing mice that have received a lethal dose of pro-inflammatory Ec LPS, an in vivo mouse model of lethal endotoxin septic shock was used. Medzhitov, R. Nat. Rev. Immunol. 2001, 1, 135-145; Remick et al., Shock 2000, 13, 110. […] These pilot experiments provide a proof-of-principle that molecules found to compete with pro-inflammatory LPS in vitro are also capable of combating symptoms of septic shock in vivo. Future sepsis models to be used in this proposal will account for bacterial clearance after antibiotic treatment, in vivo location and concentration of LPS, and the structural relationship between ASLA and MD2/TLR4 complex that will address some shortcomings of previous anti-sepsis therapeutics, which is the scientific premise of this proposal. Raetz et al., Annu. Rev. Biochem. 2002, 71, 635-700; Raetz et al., J. Lipid Res. 2009, 50 Suppl, S103-108; Needham et al., S. Nature Reviews Microbiology 2013, 11, 467-481; Ernst et al., Science 1999, 286, 1561-1565; Miller et al., Nature Reviews Microbiology 2005, 3, 36-46; Siegemund et al., Nat Immunol 2012, 13, 1031-1033; Rietschel et al., FASEB J. 1994, 8, 217-225; van Lieshout et al., Inflamm. Res. 2014, 63, 927-933; Buras et al., Nat Rev Drug Discov 2005, 4, 854-865.
Experimental Setup: Similarly to the non-lethal endotoxic shock model, in this in vivo model of lethal septic shock 6-week old C57BL6 mice were injected intraperitoneally with either 25 mg/kg E. coli (W3110) LPS, co-administered 25 mg/kg Ec LPS+10 mg/kg BECC468@26, or 25 mg/kg Ec LPS followed by 10 mg/kg BECC468@26 four hours later. Mice were monitored for survival every 12 hours post-injection. n=6 mice for each group, percent survival for each group is graphed.

Data set [2] addresses T1, TLR4 (Homo sapiens, UniProt O00206+Q9Y6Y9). As to the kind of experiment: NF-κB activation screen in THP-1 Dual reporter cells (SEAP under NFκB promoter). The data set is classed as cell-based. On the set-up: host or cells: THP-1 Dual reporter cells. The procedure:
To identify the most successful ASLA candidates to be tested for efficacy in vivo, we will stimulate both human and mouse cell cultures with increasing concentrations (0.01 ng/ml, 0.1 ng/ml, 1 ng/ml, 10 ng/ml, 100 ng/ml) of novel lipid A preparations for 4 and 24 hours. All in vitro assays will be run in biological triplicate to increase the scientific rigor of experiments. Activation of inflammatory pathways will be investigated by stimulating THP-1 cells (ATTC), a human monocytic cell line, followed by multiplex analysis of cytokines in the supernatant minimally including TNF-α, IL-8, and IL-6. We will also screen ASLA molecules using THP-1 Dual (Invitrogen) and HEK293 cells transfected with human or mouse MD2/TLR4 (Invitrogen), which have an easily detectable SEAP transcript under the NF-kB promoter to quickly evaluate the potential for these ASLA molecules to inhibit MyD88-NF-kB activation. To account for authentication of key biological resources, all cell lines were purchased from and verified by either ATCC or Invitrogen within the past year and cells used in experiments have been passaged less than 15 times since purchase. Together, these assays will illustrate a lack of inflammatory activation when cells are stimulated with the ASLA molecules. […]

In data set [3] the target is T1, TLR4. Kind of data set: Competitive inhibition of pro-inflammatory LPS in THP-1 Dual reporter cells. Conditions: Se LPS plus ASLA 470.
Description: THP-1 Dual cells (Invitrogen) contain an easily detected secreted alkaline phosphatase (SEAP) under the NFκB promoter. E. coli LPS (circles), ALSA 468 (squares), and E. coli LPS+a constant 10 ng/mL ASLA 468 (triangles) are cultured with THP-1 Dual over a 5-log dilution series, activation of NFκB, as measured by SEAP expression, is pictured.
To investigate the inflammatory properties of BECC synthesized molecules ASLA 468 and 470, THP-1 Dual cells (Invitrogen) were used to screen for NF-κB activation.
Experimental Setup: Reporter cell line THP-1 Duals (Invitrogen) are incubated for 18 hours over a five-log dose range with either Salmonella enterica (Se) LPS alone, BECC molecule alone (467@26, 468@26, 468@37, 469@26, 470@26, 470@37), or increasing doses of Se with a constant dose of BECC molecule (10 ng/mL). THP-1 Dual cells have a SEAP reporter under the NFκB promoter that is easily quantified in the supernatant of cultured cells. After 18 hours of culture supernatant is removed from the cell culture and SEAP is quantified to indicate the level of NFκB activation/inflammation. OD@620 nm can be directly extrapolated to represent relative amounts of NFκB activation. […] Mean±SD of duplicate samples is graphed for each data point.

The values below come from US11633411B2, “Methods of treating sepsis using anti-sepsis lipid A (ASLA) based therapeutics” (UNIVERSITY OF MARYLAND, BALTIMORE, priority 2016, dated 2023).

T1 sequence (O00206 24-839): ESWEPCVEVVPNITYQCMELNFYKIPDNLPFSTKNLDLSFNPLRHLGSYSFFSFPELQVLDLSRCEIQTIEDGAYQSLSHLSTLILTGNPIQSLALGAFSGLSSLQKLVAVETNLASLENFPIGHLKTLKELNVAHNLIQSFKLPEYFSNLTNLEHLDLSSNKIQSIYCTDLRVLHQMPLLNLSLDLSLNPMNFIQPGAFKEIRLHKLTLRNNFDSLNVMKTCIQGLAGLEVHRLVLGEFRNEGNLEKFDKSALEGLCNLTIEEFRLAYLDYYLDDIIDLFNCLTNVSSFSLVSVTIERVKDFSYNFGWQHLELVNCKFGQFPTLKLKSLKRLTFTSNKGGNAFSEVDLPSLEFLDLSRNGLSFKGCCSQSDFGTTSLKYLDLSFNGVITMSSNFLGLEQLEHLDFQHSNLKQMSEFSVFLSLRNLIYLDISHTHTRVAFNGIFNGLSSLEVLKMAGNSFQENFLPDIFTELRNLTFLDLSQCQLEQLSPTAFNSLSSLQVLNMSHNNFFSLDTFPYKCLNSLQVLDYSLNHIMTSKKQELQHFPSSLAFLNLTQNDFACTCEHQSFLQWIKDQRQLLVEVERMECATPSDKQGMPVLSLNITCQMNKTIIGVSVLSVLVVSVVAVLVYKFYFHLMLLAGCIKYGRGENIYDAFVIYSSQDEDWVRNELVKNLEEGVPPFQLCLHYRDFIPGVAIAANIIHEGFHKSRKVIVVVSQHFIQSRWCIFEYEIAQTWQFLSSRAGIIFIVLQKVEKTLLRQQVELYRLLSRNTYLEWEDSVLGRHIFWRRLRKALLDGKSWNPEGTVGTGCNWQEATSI
T1 sequence (Q9Y6Y9 17-160 limits assumed): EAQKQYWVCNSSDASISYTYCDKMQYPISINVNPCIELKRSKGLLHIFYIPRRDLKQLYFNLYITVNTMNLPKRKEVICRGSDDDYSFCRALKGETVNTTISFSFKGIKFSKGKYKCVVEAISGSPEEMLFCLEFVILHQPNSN

Usually EC50 stands for the concentration at which the effect is half-maximal. The low end stands for a more potent agent, the high end for a less potent agent. For `CCCCCC/C=C\CCCCCCCC(=O)OC(CCCCCCCCCCC)CC(=O)NC1[C@H](OCC2OC(OP(=O)(O)O)C(NC(=O)CC(O)CCCCCCCCCCC)[C@@H](OC(=O)CC(O)CCCCCCCCCCC)[C@@H]2O)OC(CO)C(O)[C@@H]1OC(=O)CC(CCCCCCCCCCC)OC(=O)CCCCCCCCCCC` (some centres unmarked) [ASLA 468], the values for the survival rate in data set [1] (10 mg/kg given 4 hours after 25 mg/kg Ec LPS) and in data set [1] (10 mg/kg given simultaneously with 25 mg/kg Ec LPS) were 66.6% and 100%, respectively. Besides, the pathogenic symptoms entry in data set [1] (mice injected with ASLA 468 alone) is given as “no signs of pathogenic symptoms”. For the same compound, the survival in data set [1] (treated 8 hours post-induction) stood at 100%; in data set [1] (treated 12 hours post-induction) it was 66.6%. Besides, in data set [2], the response was half-maximal at 69.5 nM (EC50).

Regarding `CCCCCC/C=C\CCCCCCCC(=O)OC(CCCCCCCCCCC)CC(=O)NC1[C@H](OCC2OC(OP(=O)(O)O)C(NC(=O)CC(CCCCCCCCCCC)OC(=O)CCCCCCCCCCCCCCC)[C@@H](OC(=O)CC(O)CCCCCCCCCCC)[C@@H]2O)OC(CO)C(O)[C@@H]1OC(=O)CC(CCCCCCCCCCC)OC(=O)CCCCCCCCCCC` (some centres unmarked) [ASLA 470], the “agonist category (full, partial, or weak agonist) for NF-κB activation” value in data set [2] (five-log dilution series, compared to Ec LPS positive control) was “weak agonists”. Also, the “fold increase of the EC50 of Se LPS” value in data set [3] turned out to be 1.9 fold.
